According to patent US20220226270A1, “VERY-LONG-CHAIN POLYUNSATURATED FATTY ACIDS, ELOVANOID HYDROXYLATED DERIVATIVES, AND METHODS OF USE” (Board of Supervisors of Louisiana State University and …, priority 2019, published 2022):

Assays:
[1] = tested on: cerebral cortical mixed neuronal cells; assay: NMDA excitotoxicity in cerebral cortical mixed neuronal cultures; type: cell-based, rat; settings: for NMDA-induced neuronal death: NMDA 25, 50 or 100 μM for 12 h, ELV (Na or Me) 200 nM or 500 nM added simultaneously
Description: Primary cultures of cortical neurons: Primary cultures of cortical and hippocampal neurons were harvested from 18-day-old embryos (E18) taken from timed-pregnant, two-month-old Sprague-Dawley (SD) rats (Charles River Lab., Wilmington, Mass.). Briefly, timed-pregnant SD rats were euthanized and embryos were collected in sterile conditions. Embryonic brains were dissected out by forceps on ice and placed in a petri dish containing ice-cold Hank's Balanced Salt Solution (HBSS) (GIBCO). Meninges were removed under a dissecting microscope and cortical tissues were chopped into small pieces with micro-spring scissors. These tissues were transferred to 15 ml tubes containing trypsin-EDTA (0.025% in HBSS) and DNase I. The tubes were incubated in 37° C. chamber for 15 mins and were agitated every 5 mins. After stopping the trypsinization with 5 ml 10% FBS, these tissues were triturated 15 times with a fire polished Pasteur pipet. Cell clumps were left to settle for 2 mins and the supernatant was transferred to a 15 ml Eppendorf tube. The supernatant was filtered through a 70 μm pore-sized filter (Corning cell strainer) and centrifuged for 5 mins at 1000 rpm. The cells were then resuspended in Neurobasal medium (GIBCO) containing 2% B27 (GIBCO) and 2% N2 (GIBCO) supplements, along with 0.5 mM glutamine, 50 U/ml penicillin/streptomycin.
Cells were counted using a Neubauer hemocytometer. 1×10^6 cells were seeded on poly-D-lysine-coated 12 well cell culture dish (CORNING) and cultured in incubator (37° C., 5% CO2). Culture medium was first replaced after 24 h, then half of the medium was replaced with fresh medium every three days. As a result, approximately, 90% purity of neurons was obtained as determined by class-III-β tubulin, GFAP and Hoechst 33258 staining. Cells were maintained in culture for about 2 weeks until they were exposed to uncompensated oxidative stress, OGD, or NMDA excitotoxicity.
After 90 mins of OGD exposure, cells were returned to the original medium (Neurobasal medium (GIBCO) containing 2% B27 (GIBCO) and 2% N2 (GIBCO) supplements, along with 0.5 mM glutamine, 50 U/ml penicillin/streptomycin) and placed in a normoxic chamber (37° C., 5% CO2) for 2 h. Then the medium was changed with medium containing either ELV-N32 or ELV-N34 [500 nM] and maintained in a normoxic chamber (37° C., 5% CO2) for 12 h, after which cells were sampled and assayed for cell viability using different methods as previously described (25-28). Cerebral cortical mixed neuronal cells or hippocampal cells in culture were exposed to either NMDA or uncompensated oxidative stress (UOS) for 12 h by addition of either NMDA (25 μM, 50 μM, or 100 μM) concentration or by the addition of TNFα (10 ng/mL) and H2O2 (50 μM, 100 μM, or 200 μM). Cell viability and neuroprotection in the presence of ELV-N32, ELV-N34, 32:6, or 34:6 were assayed after 12 h.
Hoechst staining and unbiased image analysis: Cells were washed with 1× Dulbecco's Phosphate Buffered Saline (DPBS) containing no calcium or magnesium (GIBCO) and fixed for 10 mins using ice-cold 4% paraformaldehyde (PFA) followed by 15 mins incubation in 100% methanol. Cells were washed with 1× Phosphate Buffered Saline (PBS) pH 7.4 (GIBCO) and incubated in PBS containing 20 μM Hoechst 33258 (Molecular Probes) for 20 mins. Cells were then washed 3 times with 1× PBS and stored in 1× PBS at 4° C. until they were imaged for microscopy.
One 4×4 tile mosaic was acquired from the center of each well using a Zeiss 510 Meta laser confocal microscope and LSM 510 Meta software. Images were imported into image analysis software ImageJ (National Institutes of Health, Bethesda, Md.) and batch processed using custom macros. An Otsu auto threshold was applied to each image of Hoechst-stained nuclei, and the area of each detected object was recorded. Objects with areas <10 μm^2 were excluded from analysis. To estimate percentage non-pyknotic nuclei, a size cutoff value was chosen above which objects were assumed to be non-pyknotic. […]

ARPE-19 cells under UOS = assay: Western blot of pro-survival and pro-apoptotic proteins in ARPE-19 cells under UOS; type: cell-based, human; settings: for Bax protein / Bid protein / Bim protein: Western blot, UOS; for Prohibitin (type-1) expression (ELV): sodium salts and methyl ester forms, concentration-dependent, 100-200 nM; for effect of 15-LOX-1 inhibitor on VLC-PUFA-induced Iduna expression: FIG. 7D
Experimental: (§1) ARPE19 cells at 75-80% confluence (72 h growth in DMEM/F12+10% FBS) in 6-well plates were serum-starved for 8 h before exposure. The serum-starved cells were treated with TNF-α (Sigma-Aldrich, St. Louis, Mo.) (10 ng/ml) and H2O2 (600 μM) to induce oxidative stress and challenged with increasing concentrations (50-500 nM) of VLC-PUFA (C32:6n3 and C34:6n3) simultaneously with oxidative stress for 16 h (apoptosis) and 6 h (Western-blot) before detection of apoptosis and harvesting for protein analysis. In some experiments, DHA at a concentration of 100 nM and 15-LOX-1 inhibitor PD146176 at a concentration of 1 μM was added to treat the RPE cells under stress. Cell extracts were made and protein concentrations adjusted by Bio-Rad (Hercules, Calif.) protein reagent and used for Western blot analysis.
Analysis of Proteins: Bcl-2 family proteins, SIRT1 and Proinhibitin (type-1), and Iduna proteins were analyze by Western blot analysis. In brief, 20-25 μg equivalents of each cell extracts were subject to electrophoresis on a 4-12% gel (Promega) at 125 V for 2 h. The proteins were transferred to nitrocellulose membrane by I-blot transfer apparatus. The membranes were subjected to treatment with primary antibodies specific for Bcl-2, Bcl-xL, Bax, Bid, Bim, SIRT1 and Prohibitin (type-1) (Santa Cruz Biotechnology) and Iduna antibody (Neuro-Mab Lab, UCLA, Los Angeles, Calif.) overnight at 4° C. and probed for 45 mins with secondary antibody, goat anti-mouse Ig:horseradish peroxidase, and horseradish peroxidase-conjugated anti-biotin antibody, and then proteins were evaluated by using an ECL kit (Amersham).

[2] = tested on: mice sub-retinally injected with OAβ; assay: Oligomeric Aβ (OAβ)-induced RPE senescence and retinal degeneration, sub-retinal injection; type: in vivo, mouse; settings: 200 ng co-injected with 10 μM OAβ, 2 μl sub-retinal
Description: As shown in FIGS. 14A-14C, elovanoids (ELV) counteract AR peptide-induced retinal pigment epithelial cell senescence progression. Aβ42, an end product of the amyloidogenic pathway, is a component of drusen in age-related macular degeneration (AMD), and of senile plaques in Alzheimer's disease (AD). To mimic the effect of OAβ in vivo, 6-month-old mice were used and sub-retinally injected with OAβ alone, OAβ+ELVs and ELVs alone. The no injection mice were used as negative control while the PBS injected mice were used as the sham. The injection volume was 2 μl containing of PBS, 10 μM of OAβ, 10 μM of OAβ+200 ng ELV-32, 200 ng ELV-32 alone, 10 μM of OAβ+200 ng ELV-34 or 200 ng ELV-34 alone. At day 3 after injection, mRNA from eyecup was isolated and analyzed the gene expression using q-PCR. Then, at day 7, the mice were subjected to Optical Coherence Tomography (OCT) analysis and then the eyes were enucleated and processed for histology, whole mount RPE staining, and western blotting (WB). OCT and histology uncovers that in OAβ induced retinal degeneration, the thickness of retina was thinner in OAβ injected group when compared to the controls as well as ELVs treatment groups.

primary human RPE cells = assay: UOS-induced cell death in primary human RPE cells (Hoechst staining); type: cell-based; settings: UOS with H2O2 (800 μM), 16 h; VLC-PUFAs 3 μM each, NPD1 200 nM; UOS alone 50% cell death
Experimental: Exposure of RPE cells to UOS and VLC-PUFA: For cell viability assay experiments hRPE cells were treated concomitantly with NPD1 (200 nM), 32-6, 34-6 (3 μM each) fatty acids or both 32-6 and 34-6 simultaneously. The hRPE medium was supplemented with 3 μM of 32-6 and 34-6 for the entire duration of the experiment. 15 lox-1 inhibitor (10 μM) was added to the cells 1 hour prior the OS induction and kept throughout the experiment. Cells were fixed with 4% PFA and stained with Hoescht.
(§2) To assess cell death, hRPE and ARPE-19 cells were fixed with methanol for 15 mins, washed with 1× PBS then loaded with 2 μM Hoechst dissolved in a Locke's solution (Promega) and incubated for another 15 mins before imaging. Cells were then viewed by using a Zeiss LSM 510 confocal microscope under UV fluorescence. Images were recorded and cell apoptosis was assessed by using an automated unbiased method.
To test the efficacy of 32:6n3 and 34:6n3 VLC-PUFAs to modulate human RPE cell homeostasis and survival rates, human RPE cells undergoing UOS were incubated with both VLC-PUFAs (3 μM each) and NPD1 (200 nM) 16 h. The addition of H2O2 (800 μM) induced apoptosis (50% cell death).
hRPE cells, formerly serum deprived for 12 h, were incubated with the 15 lipoxygenase 1 (15-LOX-1) inhibitor (PD146176) (10 μM for 1 h), then bathed with 600 μM H2O2/TNF-α in conjunction with a mixture of 32:6n3 and 34:6n3 (3 μM each) for 16 h. The 15-LOX-1 inhibitor sensitizes cells; therefore, a lower concentration of H2O2 than in the cytoprotection experiment was used.

ARPE-19 cells = assay: UOS-induced apoptosis in ARPE-19 cells (Hoechst-positive pyknotic cells); type: cell-based, human; settings: inhibitor 1 μM, RPE cells undergoing UOS
Experimental: as §1, §2

Compound	NMDA-induced neuronal death [1]	Bax protein (ARPE-19 cells under UOS)	Bid protein (ARPE-19 cells under UOS)	Bim protein (ARPE-19 cells under UOS)	Prohibitin (type-1) expression (ELV) (ARPE-19 cells under UOS)	protection of RPE and retina from OAβ induced senescence [2]	further results
CC/C=C\C[C@H](O)\C=C/C=C/C=C/[C@H](O)C/C=C\C/C=C\CCCCCCCCCCCCC(=O)O [ELV-N32, (14Z,17Z,20R,21E,23E,25Z,27S,29Z)-20,27-dihydroxydo-triaconta-14,17,21,23,25,29-hexaenoic acid]	compensated for	decreased	decreased	decreased	upregulated	protect RPE and retina	
CC/C=C\C[C@H](O)\C=C/C=C/C=C/[C@H](O)C/C=C\C/C=C\CCCCCCCCCCCCCCC(=O)O [ELV-N34, (16Z,19Z,22R,23E,25E,27Z, 29S,31Z)-22,29-dihydroxytetra-triaconta-16,19,23,25,27,31-hexaenoic acid]	compensated for	decreased	decreased	decreased	upregulated	protect RPE and retina	
CC/C=C\C[C@H](O)\C=C/C=C/C=C/[C@H](O)C/C=C\C/C=C\CCC(=O)O [NPD1, 10R,17S-dihydroxy-docosa-4Z,7Z,11E,13E,15Z,19Z-hexaenoic acid, reference compound]							cell death (apoptosis) (primary human RPE cells): 11%
c1ccc2c(c1)SCc1c-2[nH]c2ccccc12 [PD146176, reference compound]							effect of 15-LOX-1 inhibitor on ELV-mediated inhibition of apoptosis (ARPE-19 cells): compensate for ELV-mediated inhibition of apoptosis; SIRT1 expression with VLC-PUFA in the presence of 15-LOX-1 inhibitor (ARPE-19 cells under UOS; FIG. 7C): augmented; effect of 15-LOX-1 inhibitor on VLC-PUFA-induced Iduna expression (ARPE-19 cells under UOS): attenuates; effect of 15-LOX-1 inhibitor on VLC-PUFA-induced Iduna expression (ARPE-19 cells under UOS; listed as 15-LOX-1 inhibitor): unaffected; effect of 15-LOX-1 inhibitor on ELV-induced protein upregulation (Iduna) (ARPE-19 cells under UOS; inhibitor 1 μM): blocked these effects
MK801 maleate [reference compound]							NMDA excitotoxicity ([1]; 10 μM antagonist): overcome
